Test results reported in US20050075375A1 (priority 2003, published 2005).

The compounds below were run on monocistronic NK5.1 HCV replicon in Huh7 cells (assay: HCV replicon assay, monocistronic replicon cell line). Conditions: Hepatitis C virus, Huh-7, 72 h; table T3 (compounds 471-640); monocistronic replicon in Huh7 cells, 3 days incubation, HCV RNA/GAPDH RNA by TaqMan RT-PCR; read-out: Mono EC50 Median.
Assay type: cell-based, hepatitis C virus
Procedure, shortened: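 Huh7 cells carrying the monocistronic NK5.1 replicon, seeded 24 h before dosing, were exposed to six-point half-log compound series (0.6% DMSO) for 3 days at 37 °C. Replicon RNA was quantified by TaqMan RT-PCR, normalised to GAPDH and compared with DMSO controls to derive EC50.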

Structure (SMILES)	EC50 [µM]
Clc1ccccc1-c1nc(-c2nccc3ccccc23)n[nH]1 [Compound 471]	6.1
Clc1ccccc1-c1nc(-c2ccccn2)n[nH]1 [Compound 472, 2-[5-(2-Chloro-phenyl)-1H-[l,2,4]triazol-3-yl]-pyridine]	> 32
FC(F)(F)c1ccncc1-c1n[nH]c(-c2ccccc2Br)n1 [Compound 473, 3-[5-(2-Bromo-phenyl)-1H-[1,2,4]triazol-3-yl]-4-trifluoromethyl-pyridine]	> 32
FC(F)(F)c1ccncc1-c1n[nH]c(-c2cccc(Br)c2)n1 [Compound 474, 3-[5-(3-Bromo-phenyl)-1H-[1,2,4]triazol-3-yl]-4-trifluoromethyl-pyridine]	> 32
Fc1ccccc1-c1nc(-c2cnccc2C(F)(F)F)n[nH]1 [Compound 475, 3-[5-(2-Fluoro-phenyl)-1H-[1,2,4]triazol-3-yl]-4-trifluoromethyl-pyridine]	> 32
FC(F)(F)c1ccncc1-c1n[nH]c(-c2ccccc2Cl)n1 [Compound 476, 3-[5-(2-Chloro-phenyl)-1H-[1,2,4]triazol-3-yl]-4-trifluoromethyl-pyridine]	> 32
FC(F)(F)c1ccncc1-c1n[nH]c(-c2c(Cl)cccc2Cl)n1 [Compound 477, 3-[5-(2,6-Dichloro-phenyl)-1H-[1,2,4]triazol-3-yl]-4-trifluoromethyl-pyridine]	> 32
Fc1cccc(F)c1-c1nc(-c2cnccc2C(F)(F)F)n[nH]1 [Compound 478, 3-[5-(2,6-Difluoro-phenyl)-1H-[1,2,4]triazol-3-yl]-4-trifluoromethyl-pyridine]	> 32
Fc1cccc(Cl)c1-c1nc(-c2cnccc2C(F)(F)F)n[nH]1 [Compound 479, 3-[5-(2-Fluoro-6-chloro-phenyl)-1H-[1,2,4]triazol-3-yl]-4-trifluoromethyl-pyridine]	> 32
O=[N+]([O-])c1cccc(-c2nc(-c3cnccc3C(F)(F)F)n[nH]2)c1 [Compound 480, 3-[5-(3-Nitro-phenyl)-1H-[1,2,4]triazol-3-yl]-4-trifluoromethyl-pyridine]	> 32
COc1ccc(F)c(-c2nc(-c3cnccc3C(F)(F)F)n[nH]2)c1 [Compound 481, 3-[5-(2-Fluoro-5-methoxy-phenyl)-1H-[1,2,4]triazol-3-yl]-4-trifluoromethyl-pyridine]	> 32
Oc1ccc2ccccc2c1-c1nc(-c2ccccn2)n[nH]1 [Compound 482, 1-(5-Pyridin-2-yl-2H-[1,2,4]triazol-3-yl)-naphthalen-2-ol]	> 19
Brc1cccnc1-c1n[nH]c(-c2cccc3ccccc23)n1 [Compound 483, 3-Bromo-2-(5-naphthalen-1-yl-1H-[1,2,4]triazol-3-yl)-pyridine]	> 32
CC(C)(C)c1ccc(O)c(-c2nc(-c3ncccc3Br)n[nH]2)c1 [Compound 484, 2-[5-(3-Bromo-pyridin-2-yl)-2H-[1,2,4]triazol-3-yl]-4-tert-butyl-phenol]	7.2
O=[N+]([O-])c1ccc(O)c(-c2nc(-c3ncccc3Br)n[nH]2)c1 [Compound 485, 2-[5-(3-Bromo-pyridin-2-yl)-2H-[1,2,4]triazol-3-yl]-4-Nitro-phenol]	> 19
Oc1ccc(F)cc1-c1nc(-c2ncccc2Br)n[nH]1 [Compound 486, 2-[5-(3-Bromo-pyridin-2-yl)-2H-[1,2,4]triazol-3-yl]-4-Fluoro-phenol]	7.4
COc1ccc(O)c(-c2nc(-c3ncccc3Br)n[nH]2)c1 [Compound 487, 2-[5-(3-Bromo-pyridin-2-yl)-2H-[1,2,4]triazol-3-yl]-4-Methoxy-phenol]	> 32
Oc1ccc(Cl)cc1-c1nc(-c2ncccc2Br)n[nH]1 [Compound 488, 2-[5-(3-Bromo-pyridin-2-yl)-2H-[1,2,4]triazol-3-yl]-4-Chloro-phenol]	2.7

Structure (SMILES)	EC50 [µM]
CCOc1cccc(-c2nc(-c3ncccc3Br)n[nH]2)c1O [Compound 489, 2-[5-(3-Bromo-pyridin-2-yl)-2H-[1,2,4]triazol-3-yl]-6-Ethoxy-phenol]	22
Oc1cc(OCc2ccccc2)ccc1-c1nc(-c2ncccc2Br)n[nH]1 [Compound 490, 2-[5-(3-Bromo-pyridin-2-yl)-2H-[1,2,4]triazol-3-yl]-5-Benzyloxy-phenol]	7
Fc1cc(-c2nc(-c3ncccc3Br)n[nH]2)ccc1-c1ccccc1 [Compound 491, 3-Bromo-2-[5-(2-Fluoro-biphenyl-4-yl)-1H-[1,2,4]triazol-3-yl]-pyridine]	2.3
Oc1ccc(Br)cc1-c1nc(-c2ncccc2Br)n[nH]1 [Compound 492, 2-[5-(3-Bromo-pyridin-2-yl)-2H-[1,2,4]triazol-3-yl]-4-Bromo-phenol]	5.4
Cc1ccc(O)c(-c2nc(-c3ncccc3Br)n[nH]2)c1 [Compound 493, 2-[5-(3-Bromo-pyridin-2-yl)-2H-[1,2,4]triazol-3-yl]-4-Methyl-phenol]	16
COc1ccc(-c2nc(-c3ncccc3Br)n[nH]2)c(O)c1 [Compound 494, 2-[5-(3-Bromo-pyridin-2-yl)-2H-[1,2,4]triazol-3-yl]-5-Methoxy-phenol]	> 32
Oc1ccccc1-c1nc(-c2ncccc2Br)n[nH]1 [Compound 495, 2-[5-(3-Bromo-pyridin-2-yl)-2H-[1,2,4]triazol-3-yl]-phenol]	15
COc1cccc(-c2nc(-c3ncccc3Br)n[nH]2)c1O [Compound 496, 2-[5-(3-Bromo-pyridin-2-yl)-2H-[1,2,4]triazol-3-yl]-6-Methoxy-phenol]	> 32
O=[N+]([O-])c1cccc(-c2nc(-c3ncccc3Br)n[nH]2)c1 [Compound 497, 3-Bromo-2-[5-(3-nitro-phenyl)-1H-[1,2,4]triazol-3-yl]-pyridine]	> 32
CCN(CC)c1ccc(-c2nc(-c3ncccc3Br)n[nH]2)c(O)c1 [Compound 498, 2-[5-(3-Bromo-pyridin-2-yl)-2H-[1,2,4]triazol-3-yl]-5-Diethylamino-phenol]	5.8
Oc1ccc(O)c(-c2nc(-c3ncccc3Br)n[nH]2)c1 [Compound 499, 2-[5-(3-Bromo-pyridin-2-yl)-2H-[1,2,4]triazol-3-yl]-4-Hydroxy-phenol]	6.2
COc1cccc(-c2nc(-c3ncccc3Br)n[nH]2)c1 [Compound 500, 3-Bromo 2-[5-(3-Methoxy-phenyl)-1H-[1,2,4]triazol-3-yl]-pyridine]	> 32
COc1ccc(F)c(-c2nc(-c3ncccc3Br)n[nH]2)c1 [Compound 501, 3-Bromo-2-[5-(2-Fluoro-5-methoxy-phenyl)-1H-[1,2,4]triazol-3-yl]-pyridine]	> 32
CC(C)c1ccc(-c2nc(-c3ncccc3Br)n[nH]2)cc1 [Compound 502, 3-Bromo-2-[5-(4-isopropyl-phenyl)-1H-[1,2,4]triazol-3-yl]-pyridine]	12
Oc1ccc2ccccc2c1-c1nc(-c2ncccc2Br)n[nH]1 [Compound 503, 1-(5-(3-Bromo-pyridin-2-yl)-2H-[1,2,4]triazol-3-yl)-naphthalen-2-ol]	6.9
Cc1cccnc1-c1n[nH]c(-c2ccccc2Br)n1 [Compound 504, 2-[5-(2-Bromo-phenyl)-1H-[1,2,4]triazol-3-yl]-3-mehtyl-pyridine]	7.3
Cc1cccnc1-c1n[nH]c(-c2cccc(Br)c2)n1 [Compound 505, 2-[5-(3-Bromo-phenyl)-1H-[1,2,4]triazol-3-yl]-3-methyl-pyridine]	4
FC(F)(F)c1ccc(-c2n[nH]c(-c3cccc4ccccc34)n2)nc1 [Compound 506, 2-(5-Naphthalen-1-yl-1H-[1,2,4]triazol-3-yl)-5-trifluoromethyl-pyridine]	> 19

Same assay, conditions: Hepatitis C virus, Huh-7; monocistronic NK5.1 HCV replicon in Huh7 cells; median value; read-out: Mono EC50 Median

Structure (SMILES)	EC50 [µM]
Cc1cccnc1-c1n[nH]c(-c2ccc(C(C)C)cc2)n1 [Compound 460, 2-[5-(4-Isopropyl-phenyl)-1H-[1,2,4]triazol-3-yl]-3-methyl-pyridine]	3
Cc1cccnc1-c1n[nH]c(-c2c(O)ccc3ccccc23)n1 [Compound 461, 1-(5-(3-methyl-pyridin-2-yl)-2H-[1,2,4]triazol-3-yl)-naphthalen-2-ol]	6.9
Cc1cccc(-c2n[nH]c(-c3ccccc3Br)n2)n1 [Compound 462, 2-[5-(2-Bromo-phenyl)-1H-[1,2,4]triazol-3-yl]-6-mehtyl-pyridine]	> 32
Cc1cccc(-c2n[nH]c(-c3cccc(Br)c3)n2)n1 [Compound 463, 2-[5-(3-Bromo-phenyl)-1H-[1,2,4]triazol-3-yl]-6-methyl-pyridine]	19
Cc1cccc(-c2n[nH]c(-c3ccc(Br)cc3)n2)n1 [Compound 464, 2-[5-(4-Bromo-phenyl)-1H-[1,2,4]triazol-3-yl]-6-methyl-pyridine]	> 32
Cc1cccc(-c2n[nH]c(-c3ccccc3F)n2)n1 [Compound 465, 2-[5-(2-Fluoro-phenyl)-1H-[1,2,4]triazol-3-yl]-6-methyl-pyridine]	> 32
Cc1cccc(-c2n[nH]c(-c3ccccc3Cl)n2)n1 [Compound 466, 2-[5-(2-Chloro-phenyl)-1H-[1,2,4]triazol-3-yl]-6-methyl-pyridine]	> 32
Cc1cccc(-c2n[nH]c(-c3c(Cl)cccc3Cl)n2)n1 [Compound 467, 2-[5-(2,6-Dichloro-phenyl)-1H-[1,2,4]triazol-3-yl]-6-methyl-pyridine]	> 32
Cc1cccc(-c2n[nH]c(-c3c(F)cccc3F)n2)n1 [Compound 468, 2-[5-(2,6-Difluoro-phenyl)-1H-[1,2,4]triazol-3-yl]-6-methyl-pyridine]	> 32
Cc1cccc(-c2n[nH]c(-c3c(F)cccc3Cl)n2)n1 [Compound 469, 2-[5-(2-Fluoro-6-chloro-phenyl)-1H-[1,2,4]triazol-3-yl]-6-methyl-pyridine]	> 32
Fc1ccccc1-c1nc(-c2nccc3ccccc23)n[nH]1 [Compound 470]	7.2
